Reference: patent US20210393547A1, “USE OF EMODIN IN TREATING RETINAL ISCHEMIA OR A DISEASE, CONDITION, OR DISORDER ASSOCIATED WITH RETINAL ISCHEMIA” (priority 2020, published 2021)

Legend:
[1] = test system: β-catenin; assay: Western blot of ischemic retina, β-catenin to β-actin ratio; type: in vivo, rat; details: n=6, mean±S.E
Experimental: (§1) Emodin was purchased from Sigma-Aldrich (E7881; 90%; storage at 2-8° C.; from Frangula bark; St. Louis, Mo., United States). Drug administration for different procedures, namely ERG, fluorogold RGC labelling, cresyl violet retinal staining and Western blot assays, were described in Tables 3 to 6. Vehicle or emodin (5 μL) was administered via an intravitreous injection route so that these agents were then able to be directly diffused to the target. Emodin was dissolved in vehicle (DMSO:distilled water=1:3). The defined final cellular concentrations of administered drug were 0.25 or 0.5 μM, which were achieved after 40 times dilution from the stock concentrations, namely 10 or 20 μM, based on an arbitrary definition of the vitreous volume as 200 μL. To test a wider range of dose-response, 4 μM of emodin was thus added in the animal experiments. […] Denatured proteins were then obtained using lysis buffer (mammalian protein extraction reagent; […]), the samples were then sonicated and quantified to give equivalent amounts of 30 μg/30 μl/well. […] Finally, the PVDF membranes were then developed using an enhanced chemiluminescent analysis system ([…]) and scanned using an imager (Amersham Imager; LifeSciences); the amount of each protein was quantified according to scanning densitometry.

[2] = test system: RGC-5 cells; assay: cells; type: cell-based; details: Mus musculus, RGC5, read-out: Cell viability (% of control)
Experimental: RGC-5 cells have been reported to be not transformed rat RGCs, but rather are mouse retinal neuronal precursor cells. OGD was established by incubating RGC-5 cells in Dulbecco's modified Eagle medium (DMEM; Thermo Fisher Scientific Inc.) without glucose at 37° C. under ischemia simulation conditions, namely 1% O2 (measured using a Penguin Incubator; Astec Company, Kukuoka, Japan), 94% N2 and 5% CO2. Various experimental groups (Table 1) were investigated. […]
Mitochondrial nicotinamide adenine dinucleotide phosphate dependent oxidoreductases are able to reduce MTT to produce formazan and thus increased levels of dark purple formazan that are associated with greater cell viability. […] After shaking, the optical density (OD) of the dissolved formazan was measured using an ELISA plate reader (Synergy H1 Multi-Mode Reader BioTek Instruments) at 562 nm. Cell viability was calculated as the change in OD value compared to the untreated control (100%).
The cultured cells were used to identify the effective dose(s) of the tested agent emodin. The effect of emodin (0.25 and 0.5 μM) on the cultured cells was evaluated utilizing MTT cell viability assays and a cellular ischemia simulation model, namely OGD, for 1 day. […]

[3] = test system: VEGF; assay: Western blot of ischemic retina, VEGF to β-actin ratio; type: in vivo, rat; details: n=6, mean±S.E
Experimental: as §1

Cc1cc(O)c2c(c1)C(=O)c1cc(O)cc(O)c1C2=O [emodin, 6-methyl-1,3,8-trihydroxyanthraquinone]
ratio of β-catenin to β-actin protein level ([1]; Emo10+IR: pre-ischemic intravitreous 10 μM emodin, Sham normalized to 1, Vehicle+IR 1.64): 1.18±0.24 | ratio of β-catenin to β-actin protein level ([1]; Emo20+IR: pre-ischemic intravitreous 20 μM emodin, P=0.02 vs Vehicle+IR, Sham normalized to 1): 1.00±0.19 | viability at 0.25 µM [2]: 43.8 ± 3.75% | viability at 0.5 µM [2]: 47.5 ± 3.99% | ratio of VEGF to β-actin protein level ([3]; Emo10+IR: pre-ischemic intravitreous 10 μM emodin, Sham normalized to 1, Vehicle+IR 7.67): 3.99±2.86 | ratio of VEGF to β-actin protein level ([3]; Emo20+IR: pre-ischemic intravitreous 20 μM emodin, P=0.03 vs Vehicle+IR, Sham normalized to 1): 1.23±0.44
